# Laboratory results published in patent US8455421B2, “Compositions and methods for the removal of chewing gum residues from substrates” (Expelliere Int Ltd, priority 2008, dated 2013).
# Test system: laccase from Trametes versicolor (LTV)
# Test: Compatibility of laccase with ionic liquids (oxidation of catechol to 1,2-benzoquinone)
# Type: biochemical
# Conditions: laccase 25 mg/L, sodium phosphate-citrate buffer 25 mM, pH 4.5, 22° C., 405 nm
# Source text: An important consideration in preparing ionic liquids comprising enzymes for use in the methods of the present invention is the activity of the enzyme in the presence of the ionic liquid. The compatibility of enzymes and ionic liquids can be easily determined by the skilled person by standard laboratory techniques. One suitable technique uses high throughput screening of ionic liquids and enzymes using multiple well plates. A standard enzyme-catalysed transformation may be used to analyse the activity of a particular enzyme in the presence of various ionic liquids at various concentrations. One suitable reaction is the oxidation of catechol to 1,2-benzoquinone. The progress of this reaction can be monitored visually by the dark colour of 1,2-benzoquinone and spectrally, for instance using UV-Vis spectrometry. This transformation can be represented by the following reaction scheme, in which laccase is exemplified:
# Compatibility of enzymes with ionic liquid compositions was determined by high throughput screening on multiple well plates of various enzymes against various concentrations of ionic liquids in water. The oxidation of catechol to 1,2-benzoquinone was measured in aqueous sodium phosphate-citrate buffer solutions (25 mM) containing laccase (25 mgL^−1) and an ionic liquid, premixed at pH 6.0 for laccase from Agaricus bisporus (LAB) and at pH 4.5 for laccase from Trametes versicolor (LTV). The pH was verified by diluting the final reaction mixture in deionised water and measuring the pH using a pH meter. The rate of 1,2-benzoquinone formation was measured using an Agilent spectrophotometer at 405 nm and 22° C. using an extinction coefficient of 760 M^−1 cm^−1. The activity was measured over a range of ionic liquid concentrations from 0 to 99.4%, since the laccases were not soluble in the pure ionic liquids, but could be dissolved when the ionic liquids were mixed with 0.6% of buffer solution containing the enzyme.
row,Concentration of ionic liquid in water that inactivates Laccase (LTV) [%],Structure (SMILES)
1,90,CCCCC(CC)COC(=O)CC(C(=O)OCC(CC)CCCC)S(=O)(=O)[O-].CCCC[N+]1(C)CCCC1 (stereo not drawn) [[bmpyr]^+[docusate]^−]
2,90,CCCCC(CC)COC(=O)CC(C(=O)OCC(CC)CCCC)S(=O)(=O)[O-].CCn1cc[n+](C)c1 (stereo not drawn) [[emim][docusate]]
3,30,CCOS(=O)(=O)[O-].CCn1cc[n+](C)c1 [[emim]^+[EtOSO3]^−]

# More lines, now with the values behind:
row,Structure (SMILES),Concentration of ionic liquid in water that inactivates Laccase (LTV) [%]
1,"CCOS(=O)(=O)[O-].C[N+](C)(C)CCCO [[N1,1,1,3OH]^+[EtOSO3]^−]",30
2,"CCOS(=O)(=O)[O-].CC[N+](C)(C)CCO [[N2,1,1,2OH]^+[EtOSO3]^−]",30
3,"CCCC[N+](C)(C)CC.CCOS(=O)(=O)[O-] [[N4,2,1,1]^+[EtOSO3]^−]",70
4,"CCCCCCCC[N+](C)(C)CCCC.O=[N+]([O-])[O-] [[N8,4,1,1]^+[NO3]^−]",90
5,"CCCCC(CC)COC(=O)CC(C(=O)OCC(CC)CCCC)S(=O)(=O)[O-].CCCCn1cc[n+](C)c1 (stereo not drawn) [[bmim][docusate], 1-methyl-3-butylimidazolium docusate]",90
6,CC(O)C(=O)[O-].CCCCn1cc[n+](C)c1 [[bmim]^+[CH3CH(OH)CO2]^−],90
